Molecules are shown by their SMILES.

In the assay the target is T1, CXCR7 (Homo sapiens, UniProt P25106).
T1 construct: host or cells: CHO-K1 (PathHunter CHO-K1 CXCR7 b-arrestin cell line, stably transfected)
T1 sequence (P25106 whole entry): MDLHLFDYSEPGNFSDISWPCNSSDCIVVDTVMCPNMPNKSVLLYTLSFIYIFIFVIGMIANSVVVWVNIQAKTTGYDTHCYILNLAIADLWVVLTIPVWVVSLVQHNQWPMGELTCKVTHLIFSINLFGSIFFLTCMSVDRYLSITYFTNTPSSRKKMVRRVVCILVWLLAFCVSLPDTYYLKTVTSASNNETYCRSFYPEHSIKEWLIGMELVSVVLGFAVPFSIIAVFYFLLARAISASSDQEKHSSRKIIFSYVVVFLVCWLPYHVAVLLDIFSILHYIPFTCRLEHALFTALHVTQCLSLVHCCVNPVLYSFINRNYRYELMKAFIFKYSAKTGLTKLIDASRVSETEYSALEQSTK
T1 sequence (P32121 whole entry partner): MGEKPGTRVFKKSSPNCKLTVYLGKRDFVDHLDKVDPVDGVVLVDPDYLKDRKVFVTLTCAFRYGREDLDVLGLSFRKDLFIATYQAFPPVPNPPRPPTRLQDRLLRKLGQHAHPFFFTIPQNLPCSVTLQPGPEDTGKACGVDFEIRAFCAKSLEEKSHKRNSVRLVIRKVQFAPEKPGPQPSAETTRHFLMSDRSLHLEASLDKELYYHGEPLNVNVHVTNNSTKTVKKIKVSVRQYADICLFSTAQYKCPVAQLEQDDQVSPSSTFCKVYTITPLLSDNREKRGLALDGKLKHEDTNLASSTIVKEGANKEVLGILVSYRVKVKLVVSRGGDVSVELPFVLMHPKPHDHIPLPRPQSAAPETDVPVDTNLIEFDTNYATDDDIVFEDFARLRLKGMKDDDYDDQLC
Description: PathHunter CHO-K1 CXCR7 b-arrestin recruitment assay (CXCR7 agonistic activity). The format is cell-based. The conditions noted are these: PathHunter CHO-K1 CXCR7 b-arrestin cell line. A digest of the protocol: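 Stable CHO-K1 line with C-terminally ProLink-tagged CXCR7 and β-arrestin 2–EA fusion; β-arrestin recruitment restores β-gal activity, read by chemiluminescence after 1 h RT detection. Cells seeded 24 h, starved in OPTIMEM 3–4 h, exposed to compounds 90 min at 37 °C in HBSS/HEPES/BSA. Geometric-mean EC50 from repeated measurements.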
A general note: Arrestin recruitment assays detect the binding of arrestin to an activated receptor.
With `CN(C)CCN(Cc1cnc(N(C)C)nc1)C(=O)CNc1cccc2c1CCN(CC1CC1)C2` [Example 272, 2-(2-Cyclopropylmethyl-1,2,3,4-tetrahydro-isoquinolin-5-ylamino)-N-(2-dimethylamino-ethyl)-N-(2-dimethylamino-pyrimidin-5-ylmethyl)-acetamide], it took 230 nM to reach a half-maximal effect (EC50).

As for `COCCN1CCc2c(/C=C/C(=O)N(Cc3ccccc3)C3CCS(=O)(=O)C3)cccc2C1` (stereo not drawn) [Example 316, (E)-N-Benzyl-N-(1,1-dioxo-tetrahydro-1l6-thiophen-3-yl)-3-[2-(2-methoxy-ethyl)-1,2,3,4-tetrahydro-isoquinolin-5-yl]-acrylamide], the EC50 stood at 370 nM. The molecule `CCN1CCc2cccc(NCC(=O)N(CCc3ccccc3C)CCN(C)C)c2C1` [compound 537] yielded an EC50 of 217 nM.

`CCN(C)CCN(Cc1ccccc1C(F)(F)F)C(=O)CNc1cccc2c1CCN(CC1CC1)C2` [Example 231, 2-(2-Cyclopropylmethyl-1,2,3,4-tetrahydro-isoquinolin-5-ylamino)-N-[2-(ethyl-methyl-amino)-ethyl]-N-(2-trifluoromethyl-benzyl)-acetamide]: a half-maximal response (EC50) required 1 nM. `CN(C)CCN(Cc1ccccc1)C(=O)/C=C/c1cccc2c1CCN(C)C2` [compound 142, (E)-N-Benzyl-N-(2-dimethylamino-ethyl)-3-(2-methyl-1,2,3,4-tetrahydro-isoquinolin-5-yl)-acrylamide] came in with a 50% effective concentration (EC50) of 23 nM.

Molecule `C#CCN1CCc2c(cccc2NCC(=O)N(CCN(C)C)Cc2ccccc2C(F)(F)F)C1` [Example 308, N-(2-Dimethylamino-ethyl)-2-(2-prop-2-ynyl-1,2,3,4-tetrahydro-isoquinolin-5-ylamino)-N-(2-trifluoromethyl-benzyl)-acetamide] came in with an EC50 of 28 nM. In turn, `COCCN1CCc2c(cccc2NCC(=O)N(CCN2CCC(F)(F)CC2)Cc2ncccc2C(F)(F)F)C1` [Example 300, N-[2-(4,4-Difluoro-piperidin-1-yl)-ethyl]-2-[2-(2-methoxy-ethyl)-1,2,3,4-tetrahydro-isoquinolin-5-ylamino]-N-(3-trifluoromethyl-pyridin-2-ylmethyl)-acetamide] returned a concentration for a half-maximal effect (EC50) of 96 nM. `CNCCN(Cc1ncccc1C(F)(F)F)C(=O)CNc1cccc2c1CCN(C(=O)OCC(C)(C)C)C2` [compound 428] returned an EC50 of 120 nM. The molecule `CN(CCN(Cc1ccccc1C(F)(F)F)C(=O)CNc1cccc2c1CCN(CC1CC1)C2)C1CCC1` [Example 447, N-[2-(Cyclobutyl-methyl-amino)-ethyl]-2-(2-cyclopropylmethyl-1,2,3,4-tetrahydro-isoquinolin-5-ylamino)-N-(2-trifluoromethyl-benzyl)-acetamide] showed a 50% effective concentration (EC50) of 1 nM. The value for `CC(C)OC(=O)N1CCc2cccc(NCC(=O)N(CCN(C)C)Cc3ccccc3)c2C1` [compound 192, 8-({[Benzyl-(2-dimethylamino-ethyl)-carbamoyl]-methyl}-amino)-3,4-dihydro-1H-isoquinoline-2-carboxylic acid isopropyl ester] was 38 nM; that for `CN(C)CCN(Cc1ccccc1C(F)(F)F)C(=O)CNc1cccc2c1CCN(c1ccccn1)C2` [Example 374, N-(2-Dimethylamino-ethyl)-2-(2-pyridin-2-yl-1,2,3,4-tetrahydro-isoquinolin-5-ylamino)-N-(2-trifluoromethyl-benzyl)-acetamide] was 5 nM; that for `O=C(CNc1cccc2c1CCN(CC1CC1)C2)N(CCN1CCCC1)Cc1ccccc1C(F)(F)F` [Example 62, 2-(2-Cyclopropylmethyl-1,2,3,4-tetrahydro-isoquinolin-5-ylamino)-N-(2-pyrrolidin-1-yl-ethyl)-N-(2-trifluoromethyl-benzyl)-acetamide] was 1 nM. Regarding `CCN1CCc2cccc(NCC(=O)N(CCN(C)C)Cc3ccccc3)c2C1` [Example 185, N-Benzyl-N-(2-dimethylamino-ethyl)-2-(2-ethyl-1,2,3,4-tetrahydro-isoquinolin-8-ylamino)-acetamide], the concentration giving a half-maximal response (EC50) came to 79 nM. Molecule `O=C(CNc1cccc2c1CN(CC1CC1)CC2)N(CCN1CCCC(F)(F)C1)Cc1ccccc1C(F)(F)F` [compound 478] gave a concentration for a half-maximal effect (EC50) of 92 nM.

`CCC(=O)N1CCc2c(CCC(=O)N(CCN(C)C)Cc3ccccc3)cccc2C1` [Example 162, N-Benzyl-N-(2-dimethylamino-ethyl)-3-(2-propionyl-1,2,3,4-tetrahydro-isoquinolin-5-yl)-propionamide] returned an EC50 of 46 nM.

On to `CN(C)CCN(Cc1ncccc1Br)C(=O)CNc1cccc2c1CN(C(=O)[C@H]1C[C@H]1F)CC2` (relative stereo) [compound 460], for which a half-maximal effect (EC50) was put at 85 nM. Molecule `CCC(=O)N1CCc2c(cccc2NCC(=O)N(CCN(C)C)Cc2ccc(OC)cc2)C1` [Example 30, N-(2-Dimethylamino-ethyl)-N-(4-methoxy-benzyl)-2-(2-propionyl-1,2,3,4-tetrahydro-isoquinolin-5-ylamino)-acetamide] displayed an EC50 of 283 nM. `CN(C)CCN(Cc1ccccc1Cl)C(=O)COc1cccc2c1CCN(CC1CC1)C2` [compound 172, N-(2-Chloro-benzyl)-2-(2-cyclopropylmethyl-1,2,3,4-tetrahydro-isoquinolin-5-yloxy)-N-(2-dimethylamino-ethyl)-acetamide]: the EC50 was found to be 2 nM. Molecule `O=C1CC(CN(Cc2ccccc2C(F)(F)F)C(=O)CNc2cccc3c2CCN(CC2CC2)C3)=CC=N1` [Example 78, 2-(2-Cyclopropylmethyl-1,2,3,4-tetrahydro-isoquinolin-5-ylamino)-N-(2-oxo-2,3-dihydro-pyridin-4-ylmethyl)-N-(2-trifluoromethyl-benzyl)-acetamide] displayed an EC50 of 376 nM. For `CN(C)CCN(Cc1ccccc1C(F)(F)F)C(=O)CNc1cccc2c1CCN(C1CCCC1)C2` [Example 210, 2-((2-Cyclopentyl-1,2,3,4-tetrahydroisoquinolin-5-yl)amino)-N-(2-(dimethylamino)ethyl)-N-(2-(trifluoromethyl)benzyl)acetamide], the EC50 was found to be 5 nM.

`CN(C)CCN(Cc1ccccc1)C(=O)CNc1cccc2c1CN(CC1CCCCC1)CC2` [compound 194, N-Benzyl-2-(2-cyclohexylmethyl-1,2,3,4-tetrahydro-isoquinolin-8-ylamino)-N-(2-dimethylamino-ethyl)-acetamide] registered a concentration for a half-maximal effect (EC50) of 13 nM. `CC(C)OC(=O)N1CCc2cccc(NCC(=O)N(CCN(C)C)Cc3ccccc3C(F)(F)F)c2C1` [compound 553, 8-({[(2-Dimethylamino-ethyl)-(2-trifluoromethyl-benzyl)-carbamoyl]-methyl}-amino)-3,4-dihydro-1H-isoquinoline-2-carboxylic acid isopropyl ester]: the concentration giving a half-maximal response (EC50) came to 14 nM.

`CN(C)CCN(Cc1ccccc1C(F)(F)F)C(=O)CNc1cccc2c1CN(C(=O)N(C)C)CC2` [Example 546, 8-({[(2-Dimethylamino-ethyl)-(2-trifluoromethyl-benzyl)-carbamoyl]-methyl}-amino)-3,4-dihydro-1H-isoquinoline-2-carboxylic acid dimethylamide] showed an EC50 of 8 nM. Regarding `Cc1cccc(CN(CCN(C)C)C(=O)CNc2cccc3c2CCN(CC2CC2)C3)n1` [Example 259, 2-(2-Cyclopropylmethyl-1,2,3,4-tetrahydro-isoquinolin-5-ylamino)-N-(2-dimethylamino-ethyl)-N-(6-methyl-pyridin-2-ylmethyl)-acetamide], it took 5 nM to reach a half-maximal effect (EC50).

For `CN(C)CCN(Cc1ccccc1C(F)(F)F)C(=O)CNc1cccc2c1CCN(c1ccccc1)C2` [Example 373, N-(2-Dimethylamino-ethyl)-2-(2-phenyl-1,2,3,4-tetrahydro-isoquinolin-5-ylamino)-N-(2-trifluoromethyl-benzyl)-acetamide], the EC50 stood at 67 nM. As to `COCCN(Cc1ccccc1C(F)(F)F)C(=O)CNc1cccc2c1CCN(CC1CC1)C2` [Example 225, 2-(2-Cyclopropylmethyl-1,2,3,4-tetrahydro-isoquinolin-5-ylamino)-N-(2-methoxy-ethyl)-N-(2-trifluoromethyl-benzyl)-acetamide], the concentration giving a half-maximal response (EC50) was found to be 29 nM.

As for `CN(C)CCN(Cc1ccccc1C(F)(F)F)C(=O)CNc1cccc2c1CN(C(=O)c1ccccc1)CC2` [compound 552, 2-(2-Benzoyl-1,2,3,4-tetrahydro-isoquinolin-8-ylamino)-N-(2-dimethylamino-ethyl)-N-(2-trifluoromethyl-benzyl)-acetamide], the midpoint of the response, the EC50, lay at 4 nM. On to `O=C(CNc1cccc2c1CCN(CC1CC1)C2)N(CCCN1CCCC1)Cc1ccccc1C(F)(F)F` [Example 214, 2-(2-Cyclopropylmethyl-1,2,3,4-tetrahydro-isoquinolin-5-ylamino)-N-(3-pyrrolidin-1-yl-propyl)-N-(2-trifluoromethyl-benzyl)-acetamide], for which it took 3 nM to reach a half-maximal effect (EC50). `COC(=O)N1CCc2cccc(NCC(=O)N(CCN(C)C)Cc3ccccc3)c2C1` [Example 190, 8-({[Benzyl-(2-dimethylamino-ethyl)-carbamoyl]-methyl}-amino)-3,4-dihydro-1H-isoquinoline-2-carboxylic acid methyl ester] displayed a concentration giving a half-maximal response (EC50) of 110 nM.

As for `CN(C)CCN(Cc1ccccc1)C(=O)CCc1cccc2c1CCN(CC1CC1)C2` [compound 161, N-Benzyl-3-(2-cyclopropylmethyl-1,2,3,4-tetrahydro-isoquinolin-5-yl)-N-(2-dimethylamino-ethyl)-propionamide], the 50% effective concentration (EC50) is 4 nM. As for `CCN1CCc2cccc(NCC(=O)N(Cc3ccccc3C(F)(F)F)C3CCOCC3)c2C1` [compound 519], the figure is 250 nM; as for `CN(C)CCN(Cc1ccccc1)C(=O)CNc1cccc2c1CCN(Cc1ccco1)C2` [compound 118], 126 nM; as for `CCC(C)N1CCc2c(cccc2NCC(=O)N(CCN(C)C)Cc2ccccc2C(F)(F)F)C1` (racemic) [Example 356, rac-2-(2-sec-Butyl-1,2,3,4-tetrahydro-isoquinolin-5-ylamino)-N-(2-dimethylamino-ethyl)-N-(2-trifluoromethyl-benzyl)-acetamide], 6 nM.

As a reminder, the EC50 is the concentration that produces a half-maximal response.

The values are drawn from US9920010B2, “CXCR7 receptor modulators” (IDORSIA PHARMACEUTICALS LTD, priority 2013, dated 2018).
